Measured values as given in patent US7173014B2, “HIV-specific synthetic oligonucleotides and methods of their use” (priority 1997, dated 2007).

How the values were obtained:
[1] = test system: fresh human peripheral blood mononuclear cells; assay: Toxicity in uninfected and HIV-1 infected fresh human PBMC (XTT, MTT, trypan blue, tritiated thymidine); assay type: cell-based
Method: In yet another experiment, the toxicity of Oligo 41 was evaluated in uninfected and HIV-1 infected fresh human peripheral blood mononuclear cells, using a variety of quantitative endpoints. Toxicity was evaluated using the tetrazolium dyes XTT or MTT, trypan blue cell and cell viability counting and the incorporation of tritiated thymidine. Two replicate assays were performed. In the first assay, Oligo 41 was used at a high test concentration of 50 μg/ml and toxicity was evaluated on day 7. […] A second assay was performed to further evaluate toxicity at higher compound concentration and with longer exposure to the compound.
For the PBL assay, PHA-P stimulated cells from at least two normal donors were pooled, set in fresh medium at 2×10^6/ml, and plated in the interior wells of a 96 well round bottom microplate at 50 μL/well. Test drug dilutions were prepared at a 2× concentration in microtiter tubes, and 100 μl of each concentration was placed in appropriate wells in a standard format. Fifty microliters of a predetermined dilution of virus stock was placed in each test well. […]
Tritiated thymidine incorporation was measured in parallel cultures at day 7. […] The filters were dried, placed in a scintillation vial with 1 ml of scintillation cocktail and incorporated radioactivity was quantified on a liquid scintillation counter (e.g., Packard Tri-Carb 1900 TR450).

[2] = test system: monocyte-macrophage-tropic strains BaL and ADA; assay: Anti-HIV assay in fresh human monocyte-macrophages; assay type: cell-based, HIV-1
Method: In addition to these T-tropic strains, the activity of the compounds was also evaluated against the monocyte-macrophage strains BaL and ADA. Oligos 12 and 32 according to the invention, as well as Oligo 41 are active against low passage clinical T-tropic strains of HIV-1. The activity of the compounds varies from strain to strain. The compounds were not active against the monocyte-macrophage-tropic strains BaL and ADA.
For isolation of adherent cells, 3×10^6 non-PHA stimulated peripheral blood cells were resuspended in Hanks buffered saline (with calcium and magnesium) supplemented with 10% human AB serum. The cells were placed in a 24-well microtiter plate at 37° C. for 2 hours. Non-adherent cells were removed by vigorously washing six times. The adherent cells were cultured for 7 days in RPMI 1640 tissue culture medium with 15% fetal bovine serum. The cultures were carefully monitored for confluency during this incubation period. Infection of the cells was performed with the monocytotropic HIV-1 strains BaL or ADA and the matched pair of AZT-sensitive and AZT-resistant virus isolates. Each of these virus isolates was obtained from the NIAID AIDS Research and Reference Reagent Program. High titer pools of each of these viruses have been harvested from infected cultures of peripheral blood adherent cells and frozen in 1.0 ml aliquots at −80° C. Monocyte-macrophage monolayers were infected at an MOI of 0.1. Compounds to be evaluated in the monocyte-macrophage assay are added to the monolayers shortly before infection in order to maximize the potential for identifying active compounds.
At 2 days post-infection, the medium was decanted and the cultures washed twice with complete medium in order to remove excess virus. […] Control curves are generated in each assay to accurately quantify the amount of capsid protein in each sample. Data was obtained by spectrophotometric analysis at 450 nm using a plate reader (Molecular Devices Vmax). P24 concentrations were calculated from the optical density values by use of the Molecular Device software package Soft Max.

[3] = test system: low passage, clinical strains of HIV-1; assay: Anti-HIV activity in fresh human peripheral blood mononuclear cells; assay type: cell-based; conditions: fresh human PBMC; varies from strain to strain
Method: In another experiment, the anti-HIV activity of Oligos 12, 32, and 41 was evaluated against a variety of low passage, clinical strains of HIV-1 in fresh human peripheral blood mononuclear cells. These strains include viruses obtained from pediatric patients attending the Children's Hospital University of Alabama at Birmingham as well as viruses representative of the various HIV-1 clades found throughout the world, shown below in TABLE 4.
Fresh human peripheral blood lymphocytes (PBL) were isolated from voluntary Red Cross donors, seronegative for HIV and HBV. Leukophoresed blood was diluted 1:1 with Dulbecco's phosphate buffered saline (PBS), layered over 14 ml of Ficoll-Hypaque density gradient in a 50 ml centrifuge tube. Tubes were then centrifuged for 30 minutes at 600×g. Banded PBLs were gently aspirated from the resulting interface and subsequently washed 2× with PBS by low speed centrifugation. After final wash, cells were enumerated by trypan blue exclusion and re-suspended at 1×10^7/ml in RPMI 1640 with 15% Fetal Bovine Serum (FBS), 2 mM L-glutamine, […] PHA-P and allowed to incubate for 48–72 hours at 37° C. After incubation, PBLs were centrifuged and reset in RPMI 1640 with 15% FBS, 2 mM L-glutamine, 100 U/ml penicillin, 100 μg/ml streptomycin, 10 μg/ml gentamycin, and 20 U/ml recombinant human IL-2. PBLs were maintained in this medium at a concentration of 1–2×10^6/ml with bi-weekly medium changes, until use in assay protocol. […]
In the standard PBL assay (MOI: 0.2), the assay was ended on day 7 following collection of cell free supernatant samples for reverse transcriptase activity assay. In the low MOI PBL assay (MOI: 0.02), supernatant samples were collected on day 6, day 11, and day 14 post-infection and analyzed for RT activity. […] Opti-Fluor O was added to each sample and incorporated radioactivity was quantified utilizing a liquid scintillation counter, (Wallac 1450 Microbetaplus, Gaithersburg, Md.).

Oligo 41: oligonucleotide having SEQ ID NO:6; sequence not printed, not listed in TABLE 2 (UCGCACCCATCTCTCTCCUUC; chemistry not given here)
toxicity ([1]; high test concentration 50 μg/ml, day 7, any quantitative endpoint): No toxicity was detected
toxicity ([1]; high test concentration 150 μg/ml, exposure extended to 14 days): no toxicity was detected
activity against monocyte-macrophage-tropic strains BaL and ADA [2]: not active
activity against low passage clinical T-tropic strains of HIV-1 [3]: active
